Laboratory results: the supplement of paper PMC8612539

Legend:
Enterococcus spp. = assay: minimum inhibitory concentration (MIC)
Protocol: (§1)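 Broth microdilution MIC (Sensititre BOPO7F bovine plate, CLSI methods) of 19 antimicrobials against field isolates of P. multocida, M. haemolytica, H. somni (deep nasopharyngeal swabs) and E. coli, Enterococcus spp. (rectal swabs) from weaned dairy heifers. Incubation 16-24 h at 35 C. MIC is the lowest concentration preventing visible growth. Values with <= or > lie at the tested range limits. Trimethoprim-sulfamethoxazole is given as the trimethoprim component of a 1:19 mixture.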

Mannheimia haemolytica = assay: minimum inhibitory concentration (MIC)
Protocol: as §1

[1] = isolate (source animal id): 122
[2] = isolate (source animal id): 123
[3] = isolate (source animal id): 133
[4] = isolate (source animal id): 171
[5] = isolate (source animal id): 183
[6] = isolate (source animal id): 187
[7] = isolate (source animal id): 190
[8] = isolate (source animal id): 211
[9] = isolate (source animal id): 223
[10] = isolate (source animal id): 241
[11] = isolate (source animal id): 252
[12] = isolate (source animal id): 282
[13] = isolate (source animal id): 298
[14] = isolate (source animal id): 320
[15] = isolate (source animal id): 333

Measured: minimum inhibitory concentration

C=C[C@]1(C)C[C@@H](OC(=O)CSCCN(CC)CC)[C@]2(C)[C@H](C)CC[C@]3(CCC(=O)[C@H]32)[C@@H](C)[C@@H]1O [Tiamulin]
> 32 µg/mL: Enterococcus spp.; isolate (source animal id): 35 | Enterococcus spp.; isolate (source animal id): 42 | Enterococcus spp.; isolate (source animal id): 44 | Enterococcus spp.; isolate (source animal id): 79 | Enterococcus spp.; isolate (source animal id): 92 | Enterococcus spp.; [1] | Enterococcus spp.; [2] | Enterococcus spp.; isolate (source animal id): 158 | Enterococcus spp.; [4] | Enterococcus spp.; isolate (source animal id): 175 | Enterococcus spp.; isolate (source animal id): 177 | Enterococcus spp.; [5] | Enterococcus spp.; isolate (source animal id): 194 | Enterococcus spp.; isolate (source animal id): 222 | Enterococcus spp.; [9] | Enterococcus spp.; isolate (source animal id): 236 | Enterococcus spp.; isolate (source animal id): 244 | Enterococcus spp.; isolate (source animal id): 246 | Enterococcus spp.; isolate (source animal id): 250 | Enterococcus spp.; [11] | Enterococcus spp.; [12] | Enterococcus spp.; isolate (source animal id): 285 | Enterococcus spp.; isolate (source animal id): 289 | Enterococcus spp.; isolate (source animal id): 290 | Enterococcus spp.; isolate (source animal id): 296 | Enterococcus spp.; isolate (source animal id): 310 | Enterococcus spp.; [14] | Enterococcus spp.; isolate (source animal id): 331 | Enterococcus spp.; [15] | Enterococcus spp.; isolate (source animal id): 341 | Mannheimia haemolytica; isolate (source animal id): 170 | Mannheimia haemolytica; isolate (source animal id): 173 | Mannheimia haemolytica; isolate (source animal id): 191 | Mannheimia haemolytica; isolate (source animal id): 201 | Mannheimia haemolytica; isolate (source animal id): 202 | Mannheimia haemolytica; isolate (source animal id): 209 | Mannheimia haemolytica; isolate (source animal id): 221 | Mannheimia haemolytica; [9] | Mannheimia haemolytica; [10] | Mannheimia haemolytica; isolate (source animal id): 326
1 µg/mL: Enterococcus spp.; isolate (source animal id): 2 | Enterococcus spp.; isolate (source animal id): 168 | Enterococcus spp.; isolate (source animal id): 169 | Enterococcus spp.; isolate (source animal id): 181 | Enterococcus spp.; isolate (source animal id): 182 | Enterococcus spp.; [6] | Enterococcus spp.; [7] | Enterococcus spp.; isolate (source animal id): 195 | Enterococcus spp.; isolate (source animal id): 268
16 µg/mL: Enterococcus spp.; isolate (source animal id): 214 | Mannheimia haemolytica; isolate (source animal id): 27 | Mannheimia haemolytica; isolate (source animal id): 37 | Mannheimia haemolytica; isolate (source animal id): 49 | Mannheimia haemolytica; isolate (source animal id): 100 | Mannheimia haemolytica; isolate (source animal id): 107 | Mannheimia haemolytica; isolate (source animal id): 108 | Mannheimia haemolytica; isolate (source animal id): 112 | Mannheimia haemolytica; [1] | Mannheimia haemolytica; isolate (source animal id): 151 | Mannheimia haemolytica; isolate (source animal id): 154 | Mannheimia haemolytica; isolate (source animal id): 162 | Mannheimia haemolytica; [4] | Mannheimia haemolytica; isolate (source animal id): 179 | Mannheimia haemolytica; isolate (source animal id): 180 | Mannheimia haemolytica; [6] | Mannheimia haemolytica; [7] | Mannheimia haemolytica; isolate (source animal id): 192 | Mannheimia haemolytica; isolate (source animal id): 253 | Mannheimia haemolytica; isolate (source animal id): 259 | Mannheimia haemolytica; isolate (source animal id): 291 | Mannheimia haemolytica; [13] | Mannheimia haemolytica; isolate (source animal id): 299 | Mannheimia haemolytica; isolate (source animal id): 302 | Mannheimia haemolytica; isolate (source animal id): 304 | Mannheimia haemolytica; isolate (source animal id): 318 | Mannheimia haemolytica; [14] | Mannheimia haemolytica; isolate (source animal id): 323 | Mannheimia haemolytica; isolate (source animal id): 335
8 µg/mL: Enterococcus spp.; isolate (source animal id): 197 | Mannheimia haemolytica; isolate (source animal id): 8 | Mannheimia haemolytica; isolate (source animal id): 13 | Mannheimia haemolytica; isolate (source animal id): 18 | Mannheimia haemolytica; isolate (source animal id): 21 | Mannheimia haemolytica; isolate (source animal id): 30 | Mannheimia haemolytica; isolate (source animal id): 32 | Mannheimia haemolytica; isolate (source animal id): 34 | Mannheimia haemolytica; isolate (source animal id): 40 | Mannheimia haemolytica; isolate (source animal id): 41 | Mannheimia haemolytica; isolate (source animal id): 43 | Mannheimia haemolytica; isolate (source animal id): 51 | Mannheimia haemolytica; isolate (source animal id): 52 | Mannheimia haemolytica; isolate (source animal id): 53 | Mannheimia haemolytica; isolate (source animal id): 55 | Mannheimia haemolytica; isolate (source animal id): 56 | Mannheimia haemolytica; isolate (source animal id): 57 | Mannheimia haemolytica; isolate (source animal id): 113 | Mannheimia haemolytica; [2] | Mannheimia haemolytica; [3] | Mannheimia haemolytica; isolate (source animal id): 135 | Mannheimia haemolytica; isolate (source animal id): 141 | Mannheimia haemolytica; isolate (source animal id): 149 | Mannheimia haemolytica; [5] | Mannheimia haemolytica; isolate (source animal id): 186 | Mannheimia haemolytica; isolate (source animal id): 188 | Mannheimia haemolytica; isolate (source animal id): 288 | Mannheimia haemolytica; isolate (source animal id): 300 | Mannheimia haemolytica; isolate (source animal id): 306 | Mannheimia haemolytica; isolate (source animal id): 308 | Mannheimia haemolytica; isolate (source animal id): 309
32 µg/mL: Enterococcus spp.; isolate (source animal id): 301 | Mannheimia haemolytica; isolate (source animal id): 25 | Mannheimia haemolytica; isolate (source animal id): 28 | Mannheimia haemolytica; isolate (source animal id): 31 | Mannheimia haemolytica; isolate (source animal id): 36 | Mannheimia haemolytica; isolate (source animal id): 46 | Mannheimia haemolytica; isolate (source animal id): 50 | Mannheimia haemolytica; isolate (source animal id): 103 | Mannheimia haemolytica; isolate (source animal id): 121 | Mannheimia haemolytica; isolate (source animal id): 126 | Mannheimia haemolytica; isolate (source animal id): 138 | Mannheimia haemolytica; isolate (source animal id): 142 | Mannheimia haemolytica; isolate (source animal id): 145 | Mannheimia haemolytica; isolate (source animal id): 152 | Mannheimia haemolytica; isolate (source animal id): 159 | Mannheimia haemolytica; isolate (source animal id): 172 | Mannheimia haemolytica; [8] | Mannheimia haemolytica; isolate (source animal id): 220 | Mannheimia haemolytica; isolate (source animal id): 233 | Mannheimia haemolytica; isolate (source animal id): 237 | Mannheimia haemolytica; [11] | Mannheimia haemolytica; isolate (source animal id): 260 | Mannheimia haemolytica; isolate (source animal id): 262 | Mannheimia haemolytica; [12] | Mannheimia haemolytica; isolate (source animal id): 287 | Mannheimia haemolytica; isolate (source animal id): 293 | Mannheimia haemolytica; isolate (source animal id): 313 | Mannheimia haemolytica; isolate (source animal id): 321 | Mannheimia haemolytica; isolate (source animal id): 324 | Mannheimia haemolytica; isolate (source animal id): 328 | Mannheimia haemolytica; isolate (source animal id): 329 | Mannheimia haemolytica; [15] | Mannheimia haemolytica; isolate (source animal id): 338
2 µg/mL: Enterococcus spp.; isolate (source animal id): 88 | Enterococcus spp.; isolate (source animal id): 91 | Enterococcus spp.; isolate (source animal id): 111 | Enterococcus spp.; isolate (source animal id): 239
≤ 0.5 µg/mL: Enterococcus spp.; [3] | Enterococcus spp.; [8] | Enterococcus spp.; isolate (source animal id): 228 | Enterococcus spp.; isolate (source animal id): 230 | Enterococcus spp.; isolate (source animal id): 235 | Enterococcus spp.; [10] | Enterococcus spp.; isolate (source animal id): 247 | Enterococcus spp.; [13]
